Among the data in ChEMBL document CHEMBL1148974, “New eudesmane derivatives from Melampodium camphoratum from the Suriname rainforest” (J Nat Prod, 2004) are DC50 values, retold here.

Structures are written as SMILES. ≈ marks a conversion by molar mass, not a printed value.

This experiment concerns Plasmodium falciparum. The experiment can be described thus: Antimalarial activity as reduced heme degradation in Plasmodium falciparum infected human erythrocytes. The class given is functional, organism-based.
Usually DC50 stands for the concentration at which degradation of the target reaches its halfway point. Lower therefore signals degradation at low concentration. On to `C=C1CCC[C@]2(C)CC[C@@H](C(C)C)[C@H](OC(=O)/C=C/c3ccc(OC(=O)CCCCCCCCCCCCCCCCC)cc3)[C@@H]12`, for which the DC50 turned out to be 110 µg/mL (≈ 173 µM). In the case of `C=C1CCC[C@]2(C)CC[C@@H](C(C)C)[C@H](OC(=O)/C=C/c3ccc(OC(=O)CCCCCCC/C=C\CCCCCC)cc3)[C@@H]12`, the DC50 turned out to be 52 µg/mL (≈ 86 µM). This DC50 lies about 2.1-fold lower than the previous one.

For the compound `C=C1CCC[C@]2(C)CC[C@@H](C(C)C)[C@H](OC(=O)/C=C/c3ccc(OC(=O)CCCCCCCCCCCCCCC)cc3)[C@@H]12`, the 50% degradation concentration (DC50) came out at 75 µg/mL (≈ 124 µM). With `C=C1CCC[C@]2(C)CC[C@@H](C(C)C)[C@H](OC(=O)/C=C/c3ccc(O)cc3)[C@@H]12`, the DC50 was above 200 µg/mL. The result for `C=C1CCC[C@]2(C)CC[C@@H](C(C)C)[C@H](OC(=O)/C=C/c3ccc(OC)cc3)[C@@H]12` reads 48 µg/mL (≈ 125 µM).

For the compound `C=C1CCC[C@]2(C)CC[C@@H](C(C)C)[C@H](OC(=O)/C=C\c3ccc(O)cc3)[C@@H]12`, the DC50 is above 200 µg/mL. `C=C1CCC[C@]2(C)CC[C@@H](C(C)C)[C@H](OC(=O)/C=C\c3ccc(OC(C)=O)cc3)[C@@H]12` showed a DC50 above 200 µg/mL. Take `C=C[C@H]1CN2CC[C@H]1C[C@H]2[C@H](O)c1ccnc2ccc(OC)cc12` [QUININE]: the DC50 worked out at 1.3 µg/mL (≈ 4.01 µM).
